Results: patent US9315505B2, “Heterocyclic compounds and uses thereof” (INTELLIKINE LLC, priority 2009, dated 2016)
pEC50, pIC50: −log10 of the molar value. Read-outs that look alike come from different tables or passages of the source.

Tests used:
PI3K γ = target: T1, PI3K γ (Homo sapiens, UniProt P48736); assay: In vitro IC50, PI3K γ (p110γ inhibition assay); assay type: biochemical; settings: in vitro kinase assay
T1 construct: purchased Sigma
Protocol: (§1) Class I PI3-Ks can be either purchased (p110α/p85α, p110β/p85α, p110δ/p85α from Upstate, and p110γ from Sigma) or expressed as previously described (Knight et al., 2004). IC50 values are measured using either a standard TLC assay for lipid kinase activity (described below) or a high-throughput membrane capture assay. Kinase reactions are performed by preparing a reaction mixture containing kinase, inhibitor (2% DMSO final concentration), buffer (25 mM HEPES, pH 7.4, 10 mM MgCl2), and freshly sonicated phosphatidylinositol (100 μg/ml). Reactions are initiated by the addition of ATP containing 10 μCi of γ-32P-ATP to a final concentration 10 or 100 μM and allowed to proceed for 5 minutes at room temperature. For TLC analysis, reactions are then terminated by the addition of 105 μl 1N HCl followed by 160 μl CHCl3:MeOH (1:1). The biphasic mixture is vortexed, briefly centrifuged, and the organic phase is transferred to a new tube using a gel loading pipette tip precoated with CHCl3. This extract is spotted on TLC plates and developed for 3-4 hours in a 65:35 solution of n-propanol:1M acetic acid. The TLC plates are then dried, exposed to a phosphorimager screen (Storm, Amersham), and quantitated. For each compound, kinase activity is measured at 10-12 inhibitor concentrations representing two-fold dilutions from the highest concentration tested (typically, 200 μM).
(§2) Other commercial kits or systems for assaying PI3-K activities are available. The commercially available kits or systems can be used to screen for inhibitors and/or agonists of PI3-Ks including but not limited to PI 3-Kinase α, β, δ, and γ. An exemplary system is PI 3-Kinase (human) HTRF™ Assay from Upstate. […] Briefly, the assay is a time resolved FRET assay that indirectly measures PIP3 product formed by the activity of a PI3-K. The kinase reaction is performed in a microtitre plate (e.g., a 384 well microtitre plate). The total reaction volume is approximately 20 ul per well. In the first step, each well receives 2 ul of test compound in 20% dimethylsulphoxide resulting in a 2% DMSO final concentration. Next, approximately 14.5 ul of a kinase/PIP2 mixture (diluted in 1× reaction buffer) is added per well for a final concentration of 0.25-0.3 ug/ml kinase and 10 uM PIP2. The plate is sealed and incubated for 15 minutes at room temperature. To start the reaction, 3.5 ul of ATP (diluted in 1× reaction buffer) is added per well for a final concentration of 10 uM ATP. The plate is sealed and incubated for 1 hour at room temperature. The reaction is stopped by adding 5 ul of Stop Solution per well and then 5 ul of Detection Mix is added per well. The plate is sealed, incubated for 1 hour at room temperature, and then read on an appropriate plate reader. Data is analyzed and IC50s are generated using GraphPad Prism 5.

PI3K α = target: T2, PI3K α (Homo sapiens, UniProt P42336); assay: In vitro IC50, PI3K α (p110α/p85α inhibition assay); assay type: biochemical; settings: for IC50: in vitro kinase assay, read-out: IC50(nM) PI3K α
T2 construct: purchased Upstate
T2 sequence (P42336 whole entry): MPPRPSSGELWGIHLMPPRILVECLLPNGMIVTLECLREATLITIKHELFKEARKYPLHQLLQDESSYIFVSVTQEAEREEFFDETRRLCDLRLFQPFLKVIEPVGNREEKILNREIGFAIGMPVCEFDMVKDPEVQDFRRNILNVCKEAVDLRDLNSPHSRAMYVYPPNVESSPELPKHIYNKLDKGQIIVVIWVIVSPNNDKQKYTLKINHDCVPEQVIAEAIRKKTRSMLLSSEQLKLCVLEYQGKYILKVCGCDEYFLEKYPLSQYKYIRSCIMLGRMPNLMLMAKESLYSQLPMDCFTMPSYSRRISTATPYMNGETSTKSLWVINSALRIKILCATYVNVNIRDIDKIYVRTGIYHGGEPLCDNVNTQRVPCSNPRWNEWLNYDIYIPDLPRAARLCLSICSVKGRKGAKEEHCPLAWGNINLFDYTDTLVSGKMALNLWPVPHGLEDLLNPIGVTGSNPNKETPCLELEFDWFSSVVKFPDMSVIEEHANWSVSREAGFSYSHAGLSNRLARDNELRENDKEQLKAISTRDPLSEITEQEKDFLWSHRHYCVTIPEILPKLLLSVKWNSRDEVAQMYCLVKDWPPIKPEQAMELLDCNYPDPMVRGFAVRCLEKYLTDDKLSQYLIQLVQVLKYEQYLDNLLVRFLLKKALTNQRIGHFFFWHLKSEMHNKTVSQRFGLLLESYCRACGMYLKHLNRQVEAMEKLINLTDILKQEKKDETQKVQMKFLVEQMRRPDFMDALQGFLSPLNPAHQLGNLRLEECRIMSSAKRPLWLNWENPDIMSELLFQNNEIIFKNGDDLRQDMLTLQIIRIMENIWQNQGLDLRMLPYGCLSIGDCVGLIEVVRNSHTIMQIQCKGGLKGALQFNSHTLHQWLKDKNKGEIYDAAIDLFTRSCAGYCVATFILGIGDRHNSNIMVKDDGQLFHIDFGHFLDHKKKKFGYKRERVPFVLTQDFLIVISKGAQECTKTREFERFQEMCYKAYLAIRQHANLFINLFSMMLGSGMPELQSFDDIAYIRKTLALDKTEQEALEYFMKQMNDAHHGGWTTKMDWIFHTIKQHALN
T2 sequence (P27986 whole entry partner): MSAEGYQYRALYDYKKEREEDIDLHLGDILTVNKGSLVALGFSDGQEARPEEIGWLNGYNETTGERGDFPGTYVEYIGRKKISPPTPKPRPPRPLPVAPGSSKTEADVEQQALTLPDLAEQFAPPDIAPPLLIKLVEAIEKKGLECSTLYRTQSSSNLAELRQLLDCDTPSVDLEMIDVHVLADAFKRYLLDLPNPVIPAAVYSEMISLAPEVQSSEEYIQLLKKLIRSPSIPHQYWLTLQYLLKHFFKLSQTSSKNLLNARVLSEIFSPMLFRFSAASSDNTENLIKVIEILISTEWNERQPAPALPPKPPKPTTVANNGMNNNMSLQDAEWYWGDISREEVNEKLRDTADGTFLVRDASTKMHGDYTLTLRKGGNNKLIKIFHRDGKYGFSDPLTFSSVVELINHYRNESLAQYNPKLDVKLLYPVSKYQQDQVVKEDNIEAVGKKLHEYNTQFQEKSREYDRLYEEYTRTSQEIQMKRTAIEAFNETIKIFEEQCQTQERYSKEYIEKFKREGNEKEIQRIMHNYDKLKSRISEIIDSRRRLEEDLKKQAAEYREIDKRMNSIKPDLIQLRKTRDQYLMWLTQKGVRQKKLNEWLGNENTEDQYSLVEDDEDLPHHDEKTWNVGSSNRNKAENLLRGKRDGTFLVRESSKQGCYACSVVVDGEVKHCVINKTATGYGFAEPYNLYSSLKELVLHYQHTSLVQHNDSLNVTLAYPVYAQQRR
Protocol: as §1, with “IC50” for “Class I PI3-Ks can be either purchased (p110α/p85α, p110β/p85α, p110δ/p85α from Upstate, and p110γ from Sigma) or expressed as previously described (Knight et al., 2004). IC50”, “quantitated.” for “quantitated. For each compound, kinase activity is measured at 10-12 inhibitor concentrations representing two-fold dilutions from the highest concentration tested (typically, 200 μM).”
as §2

PI3K δ = target: T3, PI3K δ (Homo sapiens, UniProt O00329); assay: In vitro IC50, PI3K δ (p110δ/p85α inhibition assay); assay type: biochemical; settings: for IC50: in vitro kinase assay, read-out: IC50(nM) PI3K δ
T3 construct: purchased Upstate
T3 sequence (O00329 whole entry): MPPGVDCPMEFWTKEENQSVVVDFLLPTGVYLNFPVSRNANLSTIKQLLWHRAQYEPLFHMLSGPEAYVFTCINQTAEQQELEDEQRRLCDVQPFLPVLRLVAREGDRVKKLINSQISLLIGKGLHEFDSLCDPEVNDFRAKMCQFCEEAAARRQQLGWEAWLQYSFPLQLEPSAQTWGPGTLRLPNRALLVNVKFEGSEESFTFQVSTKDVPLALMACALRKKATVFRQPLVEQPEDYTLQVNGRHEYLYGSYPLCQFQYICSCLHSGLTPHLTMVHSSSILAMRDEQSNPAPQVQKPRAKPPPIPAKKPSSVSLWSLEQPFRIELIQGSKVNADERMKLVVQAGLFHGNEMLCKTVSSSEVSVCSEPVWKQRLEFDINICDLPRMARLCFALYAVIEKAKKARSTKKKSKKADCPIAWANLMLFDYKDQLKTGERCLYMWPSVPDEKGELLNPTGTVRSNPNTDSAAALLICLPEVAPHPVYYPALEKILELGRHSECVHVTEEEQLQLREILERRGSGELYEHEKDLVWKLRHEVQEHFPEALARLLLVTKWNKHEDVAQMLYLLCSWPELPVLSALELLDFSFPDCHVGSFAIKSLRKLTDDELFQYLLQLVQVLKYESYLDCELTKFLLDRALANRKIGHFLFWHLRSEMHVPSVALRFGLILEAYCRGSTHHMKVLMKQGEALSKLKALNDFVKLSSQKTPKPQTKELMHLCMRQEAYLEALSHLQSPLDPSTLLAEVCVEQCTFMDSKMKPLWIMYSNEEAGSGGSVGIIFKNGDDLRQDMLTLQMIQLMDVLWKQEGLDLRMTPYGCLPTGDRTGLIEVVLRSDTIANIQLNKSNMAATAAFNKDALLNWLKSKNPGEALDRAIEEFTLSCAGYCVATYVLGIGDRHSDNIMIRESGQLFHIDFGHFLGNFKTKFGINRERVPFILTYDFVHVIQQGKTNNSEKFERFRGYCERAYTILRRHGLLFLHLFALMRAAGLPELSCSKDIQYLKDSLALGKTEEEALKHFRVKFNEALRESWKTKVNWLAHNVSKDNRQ
T3 sequence (P27986 whole entry partner): as the sequence (P27986 whole entry partner) above
Protocol: as §1, with “IC50” for “Class I PI3-Ks can be either purchased (p110α/p85α, p110β/p85α, p110δ/p85α from Upstate, and p110γ from Sigma) or expressed as previously described (Knight et al., 2004). IC50”, “quantitated.” for “quantitated. For each compound, kinase activity is measured at 10-12 inhibitor concentrations representing two-fold dilutions from the highest concentration tested (typically, 200 μM).”
as §2

Balb/c splenic B cells = assay: B cell activation and proliferation assay (Alamar Blue); assay type: cell-based; settings: Mus musculus; for pEC50: read-out: B cell proliferation EC50
Protocol: The ability of one or more subject compounds to inhibit B cell activation and proliferation is determined according to standard procedures known in the art. For example, an in vitro cellular proliferation assay is established that measures the metabolic activity of live cells. The assay is performed in a 96 well microtiter plate using Alamar Blue reduction. Balb/c splenic B cells are purified over a Ficoll-Paque™ PLUS gradient followed by magnetic cell separation using a MACS B cell Isolation Kit (Miletenyi). Cells are plated in 90 ul at 50,000 cells/well in B Cell Media (RPMI+10% FBS+Penn/Strep+50 uM bME+5 mM HEPES). A compound disclosed herein is diluted in B Cell Media and added in a 10 ul volume. Plates are incubated for 30 min at 37 C and 5% CO2 (0.2% DMSO final concentration). A 50 ul B cell stimulation cocktail is then added containing either 10 ug/ml LPS or 5 ug/ml F(ab′)2 Donkey anti-mouse IgM plus 2 ng/ml recombinant mouse IL4 in B Cell Media. Plates are incubated for 72 hours at 37° C. and 5% CO2. A volume of 15 uL of Alamar Blue reagent is added to each well and plates are incubated for 5 hours at 37 C and 5% CO2. Alamar Blue fluoresce is read at 560Ex/590Em, and IC50 or EC50 values are calculated using GraphPad Prism 5.

T1 sequence (P48736 whole entry): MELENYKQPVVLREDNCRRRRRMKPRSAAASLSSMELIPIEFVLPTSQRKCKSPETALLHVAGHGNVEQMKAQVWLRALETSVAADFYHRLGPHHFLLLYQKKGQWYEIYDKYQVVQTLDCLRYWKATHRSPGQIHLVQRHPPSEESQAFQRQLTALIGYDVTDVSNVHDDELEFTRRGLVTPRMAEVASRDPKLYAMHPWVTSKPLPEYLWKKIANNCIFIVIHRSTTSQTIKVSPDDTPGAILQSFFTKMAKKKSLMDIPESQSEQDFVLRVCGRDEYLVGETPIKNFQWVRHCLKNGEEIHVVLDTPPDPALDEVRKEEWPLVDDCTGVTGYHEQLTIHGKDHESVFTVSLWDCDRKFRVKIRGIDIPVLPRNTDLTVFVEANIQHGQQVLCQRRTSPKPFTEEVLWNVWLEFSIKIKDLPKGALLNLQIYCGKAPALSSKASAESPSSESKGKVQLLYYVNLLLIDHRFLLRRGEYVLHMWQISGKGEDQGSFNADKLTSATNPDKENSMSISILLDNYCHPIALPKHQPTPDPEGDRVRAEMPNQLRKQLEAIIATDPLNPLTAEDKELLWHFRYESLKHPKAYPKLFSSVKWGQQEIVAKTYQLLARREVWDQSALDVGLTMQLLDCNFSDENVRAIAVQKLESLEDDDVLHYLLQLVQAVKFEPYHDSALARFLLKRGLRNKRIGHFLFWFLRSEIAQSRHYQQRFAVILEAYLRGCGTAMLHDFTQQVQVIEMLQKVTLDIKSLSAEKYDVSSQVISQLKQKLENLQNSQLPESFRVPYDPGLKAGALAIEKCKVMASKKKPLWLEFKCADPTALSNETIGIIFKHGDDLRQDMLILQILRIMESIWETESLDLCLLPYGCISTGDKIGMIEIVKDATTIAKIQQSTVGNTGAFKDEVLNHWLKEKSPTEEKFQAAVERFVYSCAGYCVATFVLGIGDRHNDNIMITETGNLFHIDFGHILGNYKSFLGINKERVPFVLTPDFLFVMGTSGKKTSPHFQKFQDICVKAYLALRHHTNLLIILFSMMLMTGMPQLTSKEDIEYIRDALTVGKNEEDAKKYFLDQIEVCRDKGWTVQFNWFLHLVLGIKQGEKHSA

SMILES | IC50 (PI3K γ) | IC50 (PI3K α) | IC50 (PI3K δ) | pEC50 (Balb/c splenic B cells) | pIC50 (PI3K α) | pIC50 (PI3K δ) | EC50 (Balb/c splenic B cells; read-out: B cell proliferation EC50 (nM))
CC(Nc1ncnc2[nH]cnc12)c1cc2cccc(Cl)c2c(CN2CCN(S(C)(=O)=O)CC2)n1 (stereo not shown) [Compound 59] | > 10000 nM | > 10000 nM | < 1000 nM | > 6.00 |  |  | 
Cc1cccc2cc(Cn3nc(-c4ccc5oc(N)nc5c4)c4c(N)ncnc43)nc(OC3CCN(C(C)C)CC3)c12 [Compound 4] | < 100 nM | < 1000 nM | < 100 nM | > 7.00 |  |  | 
Cc1cccc2cc([C@H](C)Nc3ncnc4[nH]cnc34)nc(OC3CCN(S(C)(=O)=O)CC3)c12 [Compound 61] | < 10000 nM | > 10000 nM | < 1000 nM | > 6.00 |  |  | 
CCN1CCC(Oc2nc(Cn3nc(-c4cn[nH]c4)c4c(N)ncnc43)cc3cccc(Cl)c23)CC1 [Compound 56] | > 10000 nM | > 10000 nM | < 1000 nM | > 7.00 |  |  | 
C[C@H](Nc1ncnc2[nH]cnc12)c1cc2cccc(Cl)c2c(N2CCOCC2)n1 [Compound 62] | < 10000 nM | > 10000 nM | < 1000 nM | > 6.00 |  |  | 
CS(=O)(=O)N1CCN(c2nc(Cn3nc(-c4cn[nH]c4)c4c(N)ncnc43)cc3cccc(Cl)c23)CC1 [Compound 67] | < 1000 nM | < 10000 nM | < 100 nM | > 6.00 |  |  | 
Cc1cccc2cc(Cn3nc(-c4ccc5nc(N)sc5c4)c4c(N)ncnc43)nc(OC(C)C)c12 [Compound 31] | < 100 nM | < 100 nM | < 100 nM | > 6.00 |  |  | 
CC(Nc1ncnc2[nH]cnc12)c1cc2cccc(Cl)c2c(OC2CCN(S(C)(=O)=O)CC2)n1 (stereo not shown) [Compound 54] | > 10000 nM | > 10000 nM | < 1000 nM | > 6.00 |  |  | 
Nc1ncnc2c1c(-c1cn[nH]c1)nn2Cc1cc2cccc(Cl)c2c(N2CCCC2)n1 [Compound 68] | < 1000 nM | < 10000 nM | < 100 nM | > 6.00 |  |  | 
Cc1cccc2cc(C(C)Nc3ncnc4[nH]cnc34)nc(OC3CCN(C)CC3)c12 (stereo not shown) [Compound 15] | > 10000 nM |  |  |  | < 5.00 | > 7.00 | < 100 nM
C[C@H](Nc1ncnc2[nH]cnc12)c1cc2cccc(Cl)c2c(OC2CCN(S(C)(=O)=O)CC2)n1 [Compound 60] | < 10000 nM | > 10000 nM | < 1000 nM | > 6.00 |  |  | 
CCN1CCC(Oc2nc(Cn3nc(-c4ccc5oc(N)nc5c4)c4c(N)ncnc43)cc3cccc(C)c23)CC1 [Compound 6] | < 100 nM | < 1000 nM | < 100 nM | > 7.00 |  |  | 
Cc1cccc2cc(Cn3nc(-c4cn[nH]c4)c4c(N)ncnc43)nc(OC3CCN(C)CC3)c12 [Compound 3] | > 10000 nM | < 10000 nM | < 100 nM | > 7.00 |  |  | 
Cc1cccc2cc(Cn3nc(-c4cn[nH]c4)c4c(N)ncnc43)nc(OC3CCNCC3)c12 [Compound 9] | > 10000 nM | > 10000 nM | < 100 nM | > 5.00 |  |  | 
CCN1CCC(Oc2nc(Cn3nc(-c4cn[nH]c4)c4c(N)ncnc43)cc3cccc(C)c23)CC1 [Compound 7] | > 10000 nM | < 10000 nM | < 100 nM | > 7.00 |  |  | 
C[C@H](Nc1ncnc2[nH]cnc12)c1cc2cccc(Cl)c2c(OCCN2CCOCC2)n1 [Compound 65] | < 1000 nM | < 10000 nM | < 100 nM | > 7.00 |  |  | 
CC(C)N1CCC(Oc2nc(Cn3nc(-c4cn[nH]c4)c4c(N)ncnc43)cc3cccc(Cl)c23)CC1 [Compound 57] | > 10000 nM | > 10000 nM | < 100 nM | > 7.00 |  |  | 
CS(=O)(=O)N1CCC(Oc2nc(Cn3nc(-c4cn[nH]c4)c4c(N)ncnc43)cc3cccc(Cl)c23)CC1 [Compound 58] | > 10000 nM | > 10000 nM | < 1000 nM | > 6.00 |  |  | 
Nc1ncnc2c1c(-c1cn[nH]c1)nn2Cc1cc2cccc(Cl)c2c(N2CCOCC2)n1 [Compound 66] | < 1000 nM | < 10000 nM | < 100 nM | > 7.00 |  |  | 
